# Active and inactive are the calls of the source.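 The calls were made as follows: active = compounds giving half or more protection of infected cells from virus-caused growth loss, again on retest; inactive = the rest.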
# Test system: CEM cells HIV-1 protection, formazan growth assay
# Experiment: NCI AIDS Antiviral Assay
# Conditions: for IC50: measured here: growth of uninfected CEM cells
# In short: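 Steps: treat uninfected and HIV-1-infected human CEM cells at five drug levels; quantify growth by soluble formazan; retest any compound reaching 50% protection; classify actives from the retest.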
Structure (SMILES),EC50,IC50,outcome
CCCCCCCCCCCc1c2oc3ccccc3nc-2cc(Nc2ccccc2O)c1=O,> 2.95 µM,> 2.95 µM,
CC(=O)OC12CCCCC(CCCC1)O2,> 200 µM,> 200 µM,
COc1cccc2c(=O)c3ccccc3oc12,> 200 µM,> 200 µM,
O=C(Nc1ccccc1)c1c(O)[nH]c(=O)[nH]c1=O,> 75.9 µM,38.9 µM,
Cc1cn(C2CC(N(O)Cc3ccccc3)C(CO)O2)c(=O)[nH]c1=O (stereo not given),> 200 µM,> 200 µM,
COc1cc(C[C@@]2(O)C(=O)OCC2Cc2ccc(OC)c(OC)c2)ccc1O (stereo not given in full),> 200 µM,36.3 µM,
COc1ccc(C2SCC(=O)N2c2ccc(-n3c(-c4ccccc4)nc4ccccc4c3=O)cc2)cc1 (stereo not given),> 200 µM,158 µM,
CC1(CO)CCCC2(C)C1CCC1CC3C=CC12C1C(=O)OC(=O)C31 (stereo not given),> 200 µM,83.2 µM,
COc1ccc(N2C(=O)/C(=C(\C)c3cc4ccccc4oc3=O)N=C2c2cc([N+](=O)[O-])ccc2Cl)cc1,> 10 µM,> 10 µM,
Nc1nc(N)c(-c2ccc(Cl)c(Cl)c2)c(C[P+](c2ccccc2)(c2ccccc2)c2ccccc2)n1,> 200 µM,1.05 µM,
CCc1cc(=O)oc2c3c(cc(OC(C)C)c12)O[C@H](C)[C@@H](C)C3=O,> 200 µM,15.5 µM,
S=C(NC1CCCCC1)SSSC(=S)NC1CCCCC1,> 200 µM,27.5 µM,
C[N+]1(C)CC2C3C=C(I)C(C3)C2C1 (stereo not given),> 214 µM,> 214 µM,
COc1cc2oc(=O)ccc2cc1CC=C(C)C,> 40.7 µM,> 40.7 µM,
CNP(=O)(Oc1cc(Cl)c(Cl)cc1Cl)N1CCN(c2ccccc2)CC1 (stereo not given),> 58.9 µM,30.9 µM,
CCOC(=O)C1=CC(C(=O)OCC)=C2C=CC=C3C=CC=C1N32,> 57.5 µM,12.9 µM,
COc1cc(/C=C2\SC(=S)N(/C=C(/C#N)C(=O)c3ccc4ccccc4c3)C2=O)cc(OC)c1OC,> 200 µM,14.8 µM,
CCOC(=O)c1nc2cc(C(F)(F)F)ccc2nc1Oc1ccc(OC)cc1,> 200 µM,174 µM,

Structure (SMILES),EC50,IC50,outcome
Brc1ccc(-c2nc(-c3ccc(Br)cc3)n(-c3ccccc3)n2)cc1,> 200 µM,93.3 µM,
CC(C)CNC1=NCC(C)S1 (stereo not given),> 200 µM,> 200 µM,
CC(C)C1COC(c2cccc(C3=N[C@@H](C(C)C)CO3)n2)=N1 (stereo not given in full),> 24 µM,> 24 µM,
COc1ccccc1-c1n[nH]c(-c2ccccc2O)n1,> 200 µM,> 200 µM,
COCCCNC(=O)C1C(=O)N(CCCOC)C(=O)/C1=N\N (stereo not given),> 214 µM,> 214 µM,
O=C(O)c1ccsc1Cc1cccs1,> 200 µM,> 200 µM,
O=C(CC(NC(=O)C(F)(F)F)C(=O)O)OCc1ccccc1 (stereo not given),> 200 µM,> 200 µM,
C=CC12CCCCC1CC(C(=O)OC)=C(O)C2 (stereo not given),,,inactive
CCOC(=O)/C(=C\c1cccc([N+](=O)[O-])c1)[Se]c1ccccc1,> 26.3 µM,10.7 µM,
CC(C)CC(NC(=O)C(COc1ccc([N+](=O)[O-])cc1)Cc1ccccc1)C(=O)Nc1ccccc1 (stereo not given),> 100 µM,15.1 µM,
CNC(=O)NCCCCC(NC(C)=O)C(=O)NCc1ccccc1 (stereo not given),> 741 µM,> 741 µM,
c1ccc(OP2(Oc3ccccc3)=NP(Oc3ccccc3)(Oc3ccccc3)=NP(Oc3ccccc3)(Oc3ccccc3)=NP(Oc3ccccc3)(Oc3ccccc3)=N2)cc1,> 100 µM,> 100 µM,
CC1CC(C)(C)N/C(=C/C(=O)N2Cc3cc4ccccc4nc3C2)O1 (stereo not given),> 200 µM,> 200 µM,
O=C(Nc1ccccc1S)c1ccccc1,6.76 µM,10.5 µM,
COc1cc2cc3c4cc(OC)c(OC)cc4cc(C)[n+]3cc2cc1OC,,,inactive
CCc1ccccc1NC(=O)Nc1cc(C)ccn1,> 200 µM,24 µM,
Cc1nnc2n1N=C(CC(=O)c1ccc(O)cc1O)CN2N,> 832 µM,> 832 µM,
N#Cc1cnc(N)nc1NCC1(CO)CC(CCc2ccccc2)C1 (stereo not given),> 200 µM,7.24 µM,

# Reference: PubChem BioAssay AID179 (DTP/NCI, 2004)
